The values that follow come from patent publication US20260034252A1, “FIBROBLAST ACTIVATION PROTEIN-TARGETED COMPOSITIONS AND METHODS OF USE THEREOF” (Ratio Therapeutics, Inc., priority 2022, published 2026).

Data set [1] deals with U-87 (human glioblastoma) cells. The data set is described as follows: Detection of tumors in BALB/c nude mice transplanted with U-87 cells. In kind it is in vivo. The settings on record: 1 μg intravenous injection, one hour. As for the experimental part:
BALB/c nude mice were transplanted with approximately 10^7 U-87 (human glioblastoma) cells and the tumors allowed to develop. 1 μg of an ^18F-labeled FAP-targeted agent of the invention, RTX-1312S (prepared according to Example 13), was administered to the mice by intravenous injection (e.g., tail vein), which were then sacrificed after one hour. FIG. 1a illustrates tumor binding of the ^18F-labeled FAP-targeted compound in mice.

In a further data set the target is FAP (Homo sapiens (Human), UniProt Q12884). In words: FAP protease inhibition assay (FAM-labeled substrate peptide, microfluidic electrophoresis). It counts as biochemical. The settings on record: enzyme 0.5 nM, substrate peptide 1 uM, 15 minutes pre-incubation, three hours for human FAP. As for the experimental part:
Protease reactions were assembled in 384 well plates (Greiner) in a total volume of 20 uL as described below.
Recombinant proteins were pre-diluted in assay buffer comprising of 100 mM HEPES, pH 7.5, 0.1% BSA, 0.01% Triton X-100, 1 mM DTT, and dispensed into 384 well plate (10 uL per well). Test compounds were serially pre-diluted in DMSO and added to the assay wells by acoustic dispensing (Labcyte Echo 550). Control samples (0%-inhibition in the absence of inhibitor, DMSO only) and 100%-inhibition (in the absence of enzyme) were assembled in replicates of four and used to calculate the %-inhibition in the presence of compounds. Concentration of DMSO was equalized to 1% in all samples.
Compounds were pre-incubated with enzymes for 15 minutes. Human FAP was obtained from Enzo, catalogue number BML-SE409-0010. […] Final concentration of enzymes were 0.5 nM. Final concentration of substrate peptides was 1 uM.
The reactions were allowed to proceed at room temperature. Incubation time was three hours for human FAP, 0.5 hours for mouse FAP.
Terminated plates were analyzed using a microfluidic electrophoresis instrument (Caliper LabChip® 3000, Caliper Life Sciences/Perkin Elmer). A change in relative intensity of the peptide substrate and cleaved product was the parameter measured. Activity in each test sample was determined as the product to sum ratio (PSR):P/(S+P), where P is the peak height of the product, and S is the peak height of the substrate. Percent inhibition (Pinh) was determined using the following equation: Pinh=(PSR0% inh−PSRcompound)/(PSR0% inh−PSR100% inh)*100, in which: PSRcompound is the product/sum ratio in the presence of compound, PSR0% inh is the product/sum ratio in the absence of compound and the PSR100% inh is the product/sum ratio in the absence of the enzyme.

Sequence of FAP (Q12884 whole entry): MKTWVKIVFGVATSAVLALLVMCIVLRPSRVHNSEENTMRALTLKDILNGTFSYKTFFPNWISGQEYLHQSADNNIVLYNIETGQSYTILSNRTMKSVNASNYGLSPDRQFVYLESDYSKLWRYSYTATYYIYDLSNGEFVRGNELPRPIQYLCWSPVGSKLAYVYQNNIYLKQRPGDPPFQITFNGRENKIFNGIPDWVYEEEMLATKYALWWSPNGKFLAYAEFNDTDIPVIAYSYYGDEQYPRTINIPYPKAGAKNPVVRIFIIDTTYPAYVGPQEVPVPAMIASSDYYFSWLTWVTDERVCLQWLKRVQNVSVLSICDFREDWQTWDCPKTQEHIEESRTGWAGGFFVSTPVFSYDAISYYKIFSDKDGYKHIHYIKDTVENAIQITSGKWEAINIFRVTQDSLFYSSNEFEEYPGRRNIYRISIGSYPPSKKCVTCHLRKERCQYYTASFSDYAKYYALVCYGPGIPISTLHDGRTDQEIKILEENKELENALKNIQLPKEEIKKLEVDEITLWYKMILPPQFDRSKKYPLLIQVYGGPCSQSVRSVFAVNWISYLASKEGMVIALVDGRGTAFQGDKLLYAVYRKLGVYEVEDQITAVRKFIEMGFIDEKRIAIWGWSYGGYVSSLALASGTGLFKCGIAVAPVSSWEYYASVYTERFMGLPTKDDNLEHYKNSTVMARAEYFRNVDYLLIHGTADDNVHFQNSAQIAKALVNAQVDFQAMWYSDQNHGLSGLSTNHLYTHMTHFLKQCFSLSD

The IC50 is the concentration needed to halve the response being measured. A low value points to greater potency in that assay. As to `CC(=O)NCCCC[C@H](NC(=O)[C@H](CCCCNC(=S)Nc1ccc(CC2CN(CC(=O)O)CCN(CC(=O)O)CCN2CC(=O)O)cc1)NC(=O)CCOCCOCCOCCNC(=O)COc1ccc2c(C(=O)NCC(=O)N3CCC[C@H]3C#N)ccnc2c1)C(=O)O` (stereo partly drawn) [RTX-1312S, (S)-2-[(S)-2-(3-{2-[2-(2-{2-[4-({2-[(S)-2-Cyano-1-pyrrolidinyl]-2-oxoethylamino}carbonyl)-7-quinolyloxy]acetylamino}ethoxy)ethoxy]ethoxy}propionylamino)-6-[3-(p-{[1,4,7-tris(carboxymethyl)-1,4,7-triazonan-2-yl]methyl}phenyl)thioureido]hexanoylamino]-6-acetylaminohexanoic Acid], the “tumor binding of 18F-labeled compound” value in data set [1] was “tumor binding”. On FAP, this molecule showed an IC50 of under 100 pM.
